For 23 compounds, IC50 results are on record in patent US20080076751A1, “Azetidinone Derivatives and Methods of Use Thereof” (priority 2006, published 2008).

The target of one experiment is T1, human CaV3.2 (Homo sapiens, UniProt O95180).
T1 construct: expressed in transfected cells
T1 sequence (O95180 whole entry): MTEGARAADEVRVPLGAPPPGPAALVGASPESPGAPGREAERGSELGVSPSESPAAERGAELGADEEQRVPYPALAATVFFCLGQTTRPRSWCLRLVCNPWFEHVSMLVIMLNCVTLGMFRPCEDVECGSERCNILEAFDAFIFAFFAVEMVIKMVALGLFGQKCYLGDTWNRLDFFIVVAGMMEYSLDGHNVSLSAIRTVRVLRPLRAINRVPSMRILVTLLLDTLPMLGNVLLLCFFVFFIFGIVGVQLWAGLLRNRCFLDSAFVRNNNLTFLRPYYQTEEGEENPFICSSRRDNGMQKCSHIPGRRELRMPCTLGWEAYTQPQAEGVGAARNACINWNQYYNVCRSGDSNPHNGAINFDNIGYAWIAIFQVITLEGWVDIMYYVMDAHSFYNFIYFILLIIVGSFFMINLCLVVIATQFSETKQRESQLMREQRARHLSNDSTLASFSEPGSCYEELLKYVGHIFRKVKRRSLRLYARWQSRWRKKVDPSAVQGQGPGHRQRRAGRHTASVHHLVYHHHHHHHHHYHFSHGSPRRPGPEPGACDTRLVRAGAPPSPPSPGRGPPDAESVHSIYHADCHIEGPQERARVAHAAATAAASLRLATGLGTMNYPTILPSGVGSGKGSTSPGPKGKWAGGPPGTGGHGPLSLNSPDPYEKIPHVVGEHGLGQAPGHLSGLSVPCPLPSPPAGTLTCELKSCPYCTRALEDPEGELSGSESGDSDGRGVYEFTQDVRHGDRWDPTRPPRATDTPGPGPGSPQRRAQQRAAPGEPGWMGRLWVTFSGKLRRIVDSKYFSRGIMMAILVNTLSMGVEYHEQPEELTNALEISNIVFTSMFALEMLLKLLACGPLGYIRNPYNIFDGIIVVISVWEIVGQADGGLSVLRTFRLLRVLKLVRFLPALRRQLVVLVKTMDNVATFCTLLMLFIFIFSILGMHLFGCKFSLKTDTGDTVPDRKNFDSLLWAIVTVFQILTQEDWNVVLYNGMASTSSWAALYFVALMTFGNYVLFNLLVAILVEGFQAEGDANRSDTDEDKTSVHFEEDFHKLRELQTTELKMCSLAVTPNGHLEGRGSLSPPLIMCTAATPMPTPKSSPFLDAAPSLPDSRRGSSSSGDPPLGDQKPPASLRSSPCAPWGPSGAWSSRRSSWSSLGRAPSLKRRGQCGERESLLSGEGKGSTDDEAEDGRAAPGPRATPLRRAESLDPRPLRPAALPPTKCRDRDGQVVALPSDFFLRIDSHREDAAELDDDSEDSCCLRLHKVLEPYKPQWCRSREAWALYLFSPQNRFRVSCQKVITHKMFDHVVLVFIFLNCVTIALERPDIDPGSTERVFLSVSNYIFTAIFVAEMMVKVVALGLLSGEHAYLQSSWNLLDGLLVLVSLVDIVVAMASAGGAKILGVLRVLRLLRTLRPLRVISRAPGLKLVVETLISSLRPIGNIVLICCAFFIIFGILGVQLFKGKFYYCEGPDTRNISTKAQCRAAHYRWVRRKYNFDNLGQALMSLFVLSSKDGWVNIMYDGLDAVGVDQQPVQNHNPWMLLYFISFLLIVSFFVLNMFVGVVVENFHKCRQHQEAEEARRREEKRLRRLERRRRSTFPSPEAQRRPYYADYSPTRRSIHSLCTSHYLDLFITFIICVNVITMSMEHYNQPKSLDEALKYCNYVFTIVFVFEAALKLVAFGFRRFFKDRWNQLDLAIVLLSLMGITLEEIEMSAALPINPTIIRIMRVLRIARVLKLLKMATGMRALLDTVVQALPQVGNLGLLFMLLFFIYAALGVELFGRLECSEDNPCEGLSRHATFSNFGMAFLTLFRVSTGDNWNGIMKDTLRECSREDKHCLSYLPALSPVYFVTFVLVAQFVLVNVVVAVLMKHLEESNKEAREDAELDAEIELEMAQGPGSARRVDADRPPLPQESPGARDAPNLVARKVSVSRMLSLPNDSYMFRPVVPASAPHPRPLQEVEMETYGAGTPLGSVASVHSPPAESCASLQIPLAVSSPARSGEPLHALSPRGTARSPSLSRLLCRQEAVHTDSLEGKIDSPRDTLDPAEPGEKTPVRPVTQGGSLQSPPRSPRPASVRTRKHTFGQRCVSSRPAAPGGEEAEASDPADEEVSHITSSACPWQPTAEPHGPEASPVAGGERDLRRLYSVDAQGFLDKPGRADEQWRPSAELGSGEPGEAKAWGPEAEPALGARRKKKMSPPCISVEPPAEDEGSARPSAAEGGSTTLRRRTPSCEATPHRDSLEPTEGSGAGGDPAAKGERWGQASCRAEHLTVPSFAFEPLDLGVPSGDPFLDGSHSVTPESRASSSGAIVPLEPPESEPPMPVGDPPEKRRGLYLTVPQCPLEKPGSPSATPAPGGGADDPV
Briefly: IonWorks screen for hCaV3.2 (T-type calcium current, voltage clamp). Type of experiment: cell-based. The conditions noted are these: IonWorks HT, HEK cells, 10 min incubation, pulse 10, 8-point curve; read-out: IW hCav3 2 IC50. The text has this:
Functional evaluation of voltage-gated ion channels can be used to determine potency and/or single concentration efficacy of the Azetidinone Derivatives of the present invention. Two different methodologies can be used to measure ion currents: the lonWorks HT (Molecular Devices, Sunnyvale, Calif.) a moderate throughput voltage clamp screening platform that utilizes 96-well compound plates and conventional whole cell patch clamp for lower throughput, higher fidelity determinations.
HEK cells are transiently transfected and then selected for stable heterologous expression of different channel proteins of interest. Calcium channel cell lines expressed a resting potassium current, human Kir2.1, and the pore forming α-subunit of voltage-gated calcium channels. In the case of CaV2.1 cells the auxiliary subunit, β2a, is also expressed. Calcium channel lines that are used to generate the data will express either human CaV3.2, rat CaV3.2 or human CaV2.1. The human heart sodium channel, hNaV1.5, are stably expressed in CHO cells.
Cell lines can be grown at 37° C. in humidified incubators, equilibrated with 95% air/5% CO2. CHO cells can be grown in Ham's F-12 medium. HEK cells can be grown in DMEM. All media are supplemented with 10% heat-inactivated fetal bovine serum, penicillin, streptomycin and appropriate selection antibiotics (zeocin, geneticin and/or hygromycin). Cells are passaged when 80% confluent or less.
IonWorks Screen for hCaV3.2
The extracellular buffer for experiments using this instrument contained the following (mM) (NaCl 125, HEPES 10, KCl 5.4, CaCl2 1.8, MgCl2 1.8, 0.2 BaCl2 pH 7.35). The lonWorks uses amphotericin to gain electrical access to the cell interior. The internal solution contained (mM concentrations): 130 K-gluconate, 20 KCl, 5 HEPES-KOH (pH 7.25), 2 CaCl2, 1 MgCl2. Amphotericin added at 5 mg in 65 mL when present (in 650 μL DMSO). All internal and external solutions for this experiment contain 1% DMSO. Cells were acutely trypsinized from a T-75 flask and resuspended in extracellular buffer at a density of 2×10^5 cells/mL.
Experiments were performed at room temperature. Transmembrane potential was held at −100 mV for 5 seconds prior to running the voltage protocol. During this time leak currents were measured during a step to −110 mV (200 milliseconds). T-type calcium currents were activated with a 250 millisecond step to −20 mV. This depolarization step was repeated for a total of 10 pulses with an interpulse interval of 1 second. Data were excluded if the following acceptance criteria were not met: total resistance for the pre-compound scan>65 MΩ, pre-compound current>250 pA, post compound total resistance>50 MΩ.
T-type currents were measured as the peak inward current minus the current at the end of the 250 msec step to −20 mV. After the recoding configuration was established there was a pre-compound measurement of current amplitude. Compound was added as a 3× solution containing 1% DMSO. After incubation with compound for 10 minutes currents were measured again. The current amplitude after compound addition was divided by the pre-compound current for pulse 10 to determine the fraction of current remaining after compound addition. For each compound, 8-point concentration-effect relationships were measured with ½ log serial dilutions.
In general terms: In patch-clamp work, channel activity is measured electrically.
Turning to `O=C(Nc1cccc(C(F)(F)F)c1)N1CCC2(CC1)C(=O)N(c1cccc(Cl)c1)C2c1ccccn1` (centres unmarked) [drawing 563], the IC50 (usually the concentration needed to halve the response being measured) came to 95.5 nM.

For `O=C(Nc1cccc(C(F)(F)F)c1)N1CCC2(CC1)C(=O)N(c1cccc(Cl)c1)C2c1ccccn1` (centres unmarked) [drawing 564], the IC50 is 19.5 nM.

For `N#Cc1cc(F)cc(NC(=O)N2CCC3(CC2)C(=O)N(c2ccc(F)c(Cl)c2)C3c2ccccn2)c1` (centres unmarked) [drawing 565], the IC50 is 17.5 nM.

For the compound `N#Cc1cccc(N2C(=O)C3(CCN(C(=O)Nc4cccc(C(F)(F)F)c4)CC3)C2c2ccccn2)c1` (centres unmarked) [drawing 567], the IC50 was determined as 371 nM.

On to `N#Cc1cccc(N2C(=O)C3(CCN(C(=O)Nc4cccc(C(F)(F)F)c4)CC3)C2c2ccccn2)c1` (centres unmarked) [drawing 568], for which the IC50 is 51 nM.

With `CC[C@H](C)[C@H](NC(=O)N1CCC2(CC1)C(=O)N(c1cccc(Cl)c1)C2c1ccccn1)C(=O)OC` (some centres unmarked) [drawing 571], the IC50 came out at 584 nM.

`CC[C@H](C)[C@H](NC(=O)N1CCC2(CC1)C(=O)N(c1cccc(Cl)c1)C2c1ccccn1)C(=O)OC` (some centres unmarked) [drawing 572]: the IC50 was found to be 635 nM.

For the compound `CC(NC(=O)N1CCC2(CC1)C(=O)N(c1cccc(Cl)c1)C2c1ccccn1)c1ccc(F)cc1` (centres unmarked) [drawing 575], the IC50 is 745 nM.

For the compound `CC(NC(=O)N1CCC2(CC1)C(=O)N(c1cccc(Cl)c1)C2c1ccccn1)c1ccc(F)cc1` (centres unmarked) [drawing 576], the IC50 came out at 191 nM.

As for `N#Cc1cccc(N2C(=O)C3(CCN(C(=O)Nc4cc(F)cc(F)c4)CC3)C2c2ccccn2)c1` (centres unmarked) [drawing 585], the IC50 was 732 nM.

For `N#Cc1cccc(N2C(=O)C3(CCN(C(=O)Nc4cc(F)cc(F)c4)CC3)C2c2ccccn2)c1` (centres unmarked) [drawing 586], the IC50 came to 247 nM.

Consider `N#Cc1cccc(NC(=O)N2CCC3(CC2)C(=O)N(c2cccc(C#N)c2)C3c2ccccn2)c1` (centres unmarked) [drawing 593], for which the IC50 is 2910 nM.

On to `N#Cc1cccc(NC(=O)N2CCC3(CC2)C(=O)N(c2cccc(C#N)c2)C3c2ccccn2)c1` (centres unmarked) [drawing 594], for which the IC50 is 1170 nM.

As to `C[C@H](NC(=O)N1CCC2(CC1)C(=O)N(c1cccc(Cl)c1)C2c1cccnc1)c1ccc(F)cc1` (some centres unmarked) [drawing 611], the IC50 came to 225 nM.

Turning to `N#Cc1cccc(NC(=O)N2CCC3(CC2)C(=O)N(c2cccc(Cl)c2)C3c2cccnc2)c1` (centres unmarked) [drawing 634], the IC50 came out at 124 nM.

For the compound `O=C(Nc1cc(F)cc(F)c1)N1CCC2(CC1)C(=O)N(c1cccc(Cl)c1)C2c1cccnc1` (centres unmarked) [drawing 635], the IC50 was 21 nM.

With `O=C(Nc1cc(F)cc(F)c1)N1CCC2(CC1)C(=O)N(c1cccc(Cl)c1)C2c1cccnc1` (centres unmarked) [drawing 636], the IC50 is 420 nM.

Turning to `C[C@H](NC(=O)N1CCC2(CC1)C(=O)N(c1cccc(Cl)c1)C2c1cccnc1)c1ccc(F)cc1` (some centres unmarked) [drawing 637], the IC50 turned out to be 669 nM.

For `CC[C@H](C)[C@H](NC(=O)N1CCC2(CC1)C(=O)N(c1cccc(Cl)c1)C2c1cccnc1)C(=O)OC` (some centres unmarked) [drawing 640], the 50% inhibitory concentration (IC50) was determined as 880 nM.

On to `CC[C@H](C)[C@H](NC(=O)N1CCC2(CC1)C(=O)N(c1cccc(Cl)c1)C2c1cccnc1)C(=O)OC` (some centres unmarked) [drawing 641], for which the IC50 amounted to 1300 nM.

For `N#Cc1cccc(NC(=O)N2CCC3(CC2)C(=O)N(c2cccc(Cl)c2)C3c2cccnc2)c1` (centres unmarked) [drawing 643], the IC50 stood at 1660 nM.

For another experiment, the target named is T2, TRPV1 (VR1) (Rattus norvegicus, UniProt O35433).
T2 construct: expressed in transfected cells; host or cells: HEK293-TetOFF, expression induced by withdrawing doxycycline
T2 sequence (O35433 whole entry): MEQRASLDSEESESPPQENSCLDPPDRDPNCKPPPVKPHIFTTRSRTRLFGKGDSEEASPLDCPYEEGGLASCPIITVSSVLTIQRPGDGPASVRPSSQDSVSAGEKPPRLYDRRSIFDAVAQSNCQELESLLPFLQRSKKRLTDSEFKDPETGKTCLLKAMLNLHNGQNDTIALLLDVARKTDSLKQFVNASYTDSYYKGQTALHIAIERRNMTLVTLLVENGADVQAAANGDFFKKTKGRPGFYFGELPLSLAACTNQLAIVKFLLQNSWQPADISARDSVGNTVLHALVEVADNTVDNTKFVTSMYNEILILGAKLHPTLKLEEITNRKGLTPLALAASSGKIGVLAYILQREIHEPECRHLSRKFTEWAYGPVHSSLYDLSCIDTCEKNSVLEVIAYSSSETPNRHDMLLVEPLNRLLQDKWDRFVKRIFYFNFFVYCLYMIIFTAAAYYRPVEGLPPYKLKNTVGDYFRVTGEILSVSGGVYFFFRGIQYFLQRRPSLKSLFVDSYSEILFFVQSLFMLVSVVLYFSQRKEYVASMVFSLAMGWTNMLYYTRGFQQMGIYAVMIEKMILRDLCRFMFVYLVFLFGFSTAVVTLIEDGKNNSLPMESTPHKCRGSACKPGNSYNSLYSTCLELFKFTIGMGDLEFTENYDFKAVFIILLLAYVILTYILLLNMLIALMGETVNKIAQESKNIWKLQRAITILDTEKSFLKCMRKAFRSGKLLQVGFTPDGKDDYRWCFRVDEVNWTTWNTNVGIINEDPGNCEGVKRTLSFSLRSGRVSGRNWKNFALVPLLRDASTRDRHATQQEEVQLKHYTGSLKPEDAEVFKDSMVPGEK
Briefly: TRPV1 screening assay (FLIPR, Fluo-4 calcium), capsaicin stimulation. The conditions noted are these: FLIPR, HEK293-TetOFF-TRPV1, capsaicin 50 nM final; read-out: VR1 flipr CAPSAICIN IC50. In kind it is cell-based. The text has this: • 1) Cell line: HEK293-Tet^OFF-TRPV1 • 2) Media: MEM (Invitrogen) • 3) 10% Tet-FBS (Clontech #8630-1) • 4) Fungizone (Gibe #15290-018 (100X)) • 5) Penn/Strep (Gibco #15140-122 (100X)) • 6) Geneticin (Gibco #10131-027 (100X)) • 7) Hygromycin (Clontech #8057-1) • 8) Doxycycline (Clontech #8634-1) • 9) Trypsin/EDTA (Gibco #25200-056) • 10) 100 mm cell culture plates (Falcon #3003) • 11) 96-well poly-D-lysine plates (Fisher #08-774-256) • 12) Hank's Balanced Salt Solution (HBSS) (GIBCO #14025-092) • 13) HEPES Buffer (GIBCO #15630-080) • 14) 30% BSA (Research Organics #1334A) • 15) Probenecid (Sigma P-8761) • 16) Fluo-4, AM (50 μg) (Molecular Probes F-23917) • 17) Pluronic F-127 20% (Molecular Probes P-3000). • 18) capsazepine (Sigma C-191) • 19) capsaicin (Sigma M-2028) • 20) compound plates (NUNC #442587) • 21) black pipet tips 96-well FLIPR (Robbins Scientific 1043-24-0) • 22) Additional reagents available from Fisher: methanol, DMSO, NaOH Reagent Preparation: 1) Cells: HEK293-Tet^OFF-TRPV11
• and Doxycycline 2.5 μg/mL final (from a 1000× stock in PBS) • Cells must be fed and/or split every 2-3 days (to maintain transcriptional repression with Doxycycline). • Must be split no more than 1:5 (50-75% confluency) to maintain growth and viability. • Grown on regular tissue culture plates (e.g Falcon 3003-100 mm) • Split cells via Trypsin/EDTA: incubate with trypsin at room temperature no longer than 5 minutes (HEK293 cells have a tendency to ball up if over trypsinized). • Two days prior to assay, the cells are split into 96-well plates in cell media in the absence of doxycycline at a concentration of 40,000 cells/well in a volume of 200 μL. 2) FLIPR buffer is prepared fresh:
Add 5 mL of Probenecid Solution, prepared as follows: 710 mg of probenecid (Sigma P-8761) is solubilized in 5 mL of 1N NaOH, 5 mL of above buffer is added for final volume of 10 mL. (of which 5 mL goes back into FLIPR buffer)
Combine 42 μL of dye mixture with 11 mL of FLIPR buffer/96-well plate.
Stock solution of 0.1 M capsaicin is prepared in MeOH (50 mg+1.6 mL MeOH). Store 50 μL aliquots at −80° C.
For assay: • a) Dilute stock by adding 0.8 μL into 1 mL of MeOH (final=80 uM). • b) Add 50 μL of diluted stock to 20 mL of FLIPR buffer (final=0.2 uM) • c) Agonist solution is added 150 μL/well to 96-well plate. • d) Final agonist concentration on cells will be 50 nM. […] Laser is adjusted upwards for an average signal≧10,000/well and less than 10% variability. 7) Compound addition conditions are as follows: • FLIPR setup (dual sequence parameters): • Sequence 1: • First interval 1 sec/60 counts • Second interval 6 sec/50 counts • Fluid addition=50 μL • Pipettor height 110 μL • Dispense Speed=30 μL/sec • Sequence 2: • Second interval 1 sec/60 counts • Second interval 6 sec/40 counts • Fluid addition=50 μL • Pipettor height=140 μL • Dispense Speed=50 μL/sec Data Analysis: • 1) Data from both additions is reported as Max-Min for each well
As for `CC(C)(C)c1ccc(NC(=O)N2CCC3(CC2)C(=O)N(c2ccccn2)C3c2ccccc2)cc1` (centres unmarked), the IC50 came to 1 nM.

The experiment is the same for the next values; noted with them: reference antagonist in reagent preparation; read-out: IC50 of competitive antagonist capsazepine.
`Oc1cc2c(cc1O)CN(C(=S)NCCc1ccc(Cl)cc1)CCC2` [capsazepine, reference compound]: the IC50 was roughly 500 nM.
